Source: publication PMC9149120 (Cell, 2022)
Peptide text beside a SMILES is read from it. * marks the point of attachment. Cbz = O=C(OCc1ccccc1)*; CH2F = FC*

What was measured:
SH-SY5Y cells [1] = assay: MNNG-induced parthanatic cell death, Alamar blue viability; assay type: cell-based; settings: for inhibition of parthanatic cell death by MIF tautomerase inhibitors: 10 μM p-425, 50 μM ISO-1, 10 μM AV411, 50 μM MNNG 15 min, n = 5, Figure 4J; for inhibition of MNNG-induced parthanatic cell death: 0.5 or 1 μM, 50 μM MNNG 15 min, n = 4, Figure S5I
PAAN/MIF nuclease = biological target: T1, PAAN/MIF nuclease (Homo sapiens, UniProt P14174); assay: In vitro PAAN/MIF nuclease assay; assay type: biochemical; settings: for inhibition of the nuclease activity of PAAN/MIF by MIF tautomerase inhibitors: 10 μM p-425, 50 μM ISO-1, 10 μM AV411, n = 5, Figure 4I; for inhibition of PAAN/MIF nuclease activity: PS30 substrate, indicated doses, n = 4, Figure 4H
T1 sequence (P14174 1-115): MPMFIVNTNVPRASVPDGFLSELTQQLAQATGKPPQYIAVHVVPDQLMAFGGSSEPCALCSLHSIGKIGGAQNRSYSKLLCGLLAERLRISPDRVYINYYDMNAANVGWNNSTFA

[2] = system: PC-3 prostate cancer cells; assay: Tumor cell viability alone or with alantolactone; assay type: cell-based; settings: 0.5–8 μM combined with 10 μM ATL, 72 h, n = 3; Figure S5D
HT 22 cells = assay: TNF-α and Z-VAD-induced necroptosis, Alamar blue; assay type: cell-based; settings: 1 ng/mL TNF-α with 50 μM z-VAD, n = 3; Figure S4G
cortical neurons = assay: Nuclear translocation of AIF and PAAN/MIF after α-syn PFF; assay type: cell-based, mouse; settings: n = 3
human cortical neurons = assay: Human α-syn PFF-induced cell death, Hoechst/PI staining; assay type: cell-based; settings: 0.5 or 1 μM, pre-incubated 1 h, human α-syn PFF 14 days, n = 4; Figure 3G
SH-SY5Y cells [3] = assay: Staurosporine; assay type: cell-based; settings: 0.5 μM STS, n = 3; Figure S4F
primary cortical neurons = assay: α-syn PFF-induced PARP activation; assay type: cell-based, mouse; settings: AP5 50 μM or NBQX 10 μM pre-incubated 1 h, α-syn PFF 3 days, n = 3; Figure S3A

CC(C)C(=O)c1c(C(C)C)nn2ccccc12 [Ibudilast]
inhibition of parthanatic cell death by MIF tautomerase inhibitors (SH-SY5Y cells [1]): failed to inhibit | inhibition of the nuclease activity of PAAN/MIF by MIF tautomerase inhibitors (PAAN/MIF nuclease): failed to inhibit

C[C@]1(c2nc3c(C(N)=O)cccc3[nH]2)CCCN1 [ABT-888]
tumor toxicity induced by alantolactone (ATL) [2]: enhancement of tumor toxicity | prevention of TNF-α and Z-VAD-induced necroptosis (HT 22 cells): not prevented | α-syn PFF-induced nuclear translocation of PAAN/MIF and AIF (cortical neurons; ABT-888 1 μM, Figure 2A): attenuated | protection against cell death (human cortical neurons): protected against cell death | inhibition of staurosporine (STS)-induced apoptotic cell death (SH-SY5Y cells [3]): did not inhibit

COC(=O)CC1CC(c2ccc(O)cc2)=NO1 (centres unmarked) [ISO-1]
inhibition of parthanatic cell death by MIF tautomerase inhibitors (SH-SY5Y cells [1]): failed to inhibit | inhibition of the nuclease activity of PAAN/MIF by MIF tautomerase inhibitors (PAAN/MIF nuclease): failed to inhibit

CN1C(=O)C(Cc2c[nH]c3ccccc23)NC1=S (centres unmarked) [Nec-1]
prevention of TNF-α and Z-VAD-induced necroptosis (HT 22 cells): prevented necroptosis

NC(CCCP(=O)(O)O)C(=O)O (centres unmarked) [AP5]
nuclear translocation of AIF and MIF (cortical neurons; AP5 50 μM or NBQX 10 μM pretreatment, Figure S3B): attenuated | α-syn PFF-induced PARP activation (primary cortical neurons): inhibited

C=CC[C@@H]1/C=C(\C)C[C@H](C)C[C@H](OC)[C@H]2O[C@@](O)(C(=O)C(=O)N3CCCC[C@H]3C(=O)O[C@H](/C(C)=C/[C@@H]3CC[C@@H](O)[C@H](OC)C3)[C@H](C)[C@@H](O)CC1=O)[C@H](C)C[C@@H]2OC [FK506]
inhibition of MNNG-induced parthanatic cell death (SH-SY5Y cells [1]): failed to inhibit | inhibition of PAAN/MIF nuclease activity (PAAN/MIF nuclease): failed to inhibit

CO[C@H]1C[C@@H]2CC[C@@H](C)[C@@](O)(O2)C(=O)C(=O)N2CCCC[C@H]2C(=O)O[C@H]([C@H](C)C[C@@H]2CC[C@@H](O)[C@H](OC)C2)CC(=O)[C@H](C)/C=C(\C)[C@@H](O)[C@@H](OC)C(=O)[C@H](C)C[C@H](C)/C=C/C=C/C=C/1C [rapamycin]
inhibition of MNNG-induced parthanatic cell death (SH-SY5Y cells [1]): failed to inhibit | inhibition of PAAN/MIF nuclease activity (PAAN/MIF nuclease): failed to inhibit

COC(=O)C[C@H](NC(=O)[C@H](C)NC(=O)[C@@H](NC(=O)OCc1ccccc1)C(C)C)C(=O)CF [Z-VAD] (Cbz-Val-Ala-Asp(OMe)-CH2F)
inhibition of staurosporine (STS)-induced apoptotic cell death (SH-SY5Y cells [3]): prevented
